Data: the NIST ThermoML archive (doi:10.1021/je400159e)
Numbers after ± are expanded uncertainties.

Legend:
[1] = Crystal; Adiabatic calorimetry
[2] = Molar enthalpy of transition or fusion; settings: Crystal; Adiabatic calorimetry
[3] = molar heat capacity at constant pressure; settings: 101.33 kPa, Vacuum adiabatic calorimetry

CCOC(=O)C(NC(C)=O)C(=O)OCC [diethyl 2-acetamidomalonate]
Settings | Molar enthalpy of transition or fusion [kcal/mol] | Triple point temperature [K]
[1] | – | 368.72 ± 0.2
[2] | 8.198 ± 0.0478 | –

[3]
Settings | molar heat capacity at constant pressure [J/K/mol]
78.24 K, Crystal | 110.9 ± 0.7
80 K, Crystal | 117.6 ± 0.7
80.92 K, Crystal | 118.8 ± 0.7
84.07 K, Crystal | 125.4 ± 0.8
85 K, Crystal | 125.6 ± 0.8
87.1 K, Crystal | 128.6 ± 0.8
90 K, Crystal | 132.8 ± 0.8
90.03 K, Crystal | 132.3 ± 0.8
92.96 K, Crystal | 137.3 ± 0.9
95 K, Crystal | 139.4 ± 0.9
95.86 K, Crystal | 140.8 ± 0.9
98.72 K, Crystal | 143.3 ± 0.9
100 K, Crystal | 145.5 ± 0.9
102.57 K, Crystal | 147.5 ± 0.9
105 K, Crystal | 151 ± 0.9
106.44 K, Crystal | 151.4 ± 0.9
109.33 K, Crystal | 154.8 ± 1
110 K, Crystal | 156.2 ± 1
112.24 K, Crystal | 157.6 ± 1
115 K, Crystal | 161 ± 1
115.17 K, Crystal | 161.2 ± 1
118.1 K, Crystal | 164.5 ± 1
120 K, Crystal | 165.6 ± 1
121.02 K, Crystal | 167.2 ± 1
123.94 K, Crystal | 169.6 ± 1.1
125 K, Crystal | 170 ± 1.1
126.84 K, Crystal | 172.1 ± 1.1
129.74 K, Crystal | 174.4 ± 1.1
130 K, Crystal | 174.2 ± 1.1
132.64 K, Crystal | 176.4 ± 1.1
135 K, Crystal | 178.3 ± 1.1
135.54 K, Crystal | 179.1 ± 1.1
138.43 K, Crystal | 181.8 ± 1.1
140 K, Crystal | 182.4 ± 1.1
141.33 K, Crystal | 184 ± 1.1
144.22 K, Crystal | 186.7 ± 1.2
145 K, Crystal | 186.3 ± 1.2
147.11 K, Crystal | 188.2 ± 1.2
149.99 K, Crystal | 190.2 ± 1.2
150 K, Crystal | 190.2 ± 1.2
153.39 K, Crystal | 192.9 ± 1.2
155 K, Crystal | 194.1 ± 1.2
157.07 K, Crystal | 195.6 ± 1.2
160 K, Crystal | 197.9 ± 1.2
160.22 K, Crystal | 198.3 ± 1.2
163.12 K, Crystal | 200.2 ± 1.2
165 K, Crystal | 201.8 ± 1.2
166.04 K, Crystal | 202.4 ± 1.2
168.95 K, Crystal | 204.2 ± 1.3
170 K, Crystal | 205.6 ± 1.3
171.83 K, Crystal | 206.6 ± 1.3
174.74 K, Crystal | 208.8 ± 1.3
175 K, Crystal | 209.5 ± 1.3
177.68 K, Crystal | 211 ± 1.3
180 K, Crystal | 213.4 ± 1.3
180.6 K, Crystal | 213.6 ± 1.3
183.5 K, Crystal | 216.3 ± 1.3
185 K, Crystal | 217.3 ± 1.3
186.43 K, Crystal | 218.3 ± 1.3
189.39 K, Crystal | 219.7 ± 1.4
190 K, Crystal | 221.2 ± 1.4
192.32 K, Crystal | 222.4 ± 1.4
195 K, Crystal | 225.1 ± 1.4
195.24 K, Crystal | 225 ± 1.4
198.14 K, Crystal | 227.4 ± 1.4
200 K, Crystal | 229 ± 1.4
201.06 K, Crystal | 229.4 ± 1.4
204.69 K, Crystal | 233 ± 1.4
205 K, Crystal | 232.9 ± 1.4
208.24 K, Crystal | 235.4 ± 1.4
210 K, Crystal | 236.8 ± 1.5
211.12 K, Crystal | 237.9 ± 1.5
214.07 K, Crystal | 239.9 ± 1.5
215 K, Crystal | 240.8 ± 1.5
216.99 K, Crystal | 243.1 ± 1.5
219.9 K, Crystal | 244 ± 1.5
220 K, Crystal | 244.7 ± 1.5
222.8 K, Crystal | 246.7 ± 1.5
225 K, Crystal | 248.7 ± 1.5
225.75 K, Crystal | 249.4 ± 1.5
228.73 K, Crystal | 251.2 ± 1.5
230 K, Crystal | 252.7 ± 1.6
231.68 K, Crystal | 254.7 ± 1.6
234.64 K, Crystal | 256.9 ± 1.6
235 K, Crystal | 256.7 ± 1.6
237.58 K, Crystal | 259.4 ± 1.6
240 K, Crystal | 260.7 ± 1.6
240.49 K, Crystal | 260.9 ± 1.6
244 K, Crystal | 264.3 ± 1.6
245 K, Crystal | 264.8 ± 1.6
247.5 K, Crystal | 267.7 ± 1.6
250 K, Crystal | 268.8 ± 1.6
250.46 K, Crystal | 269.6 ± 1.7
253.49 K, Crystal | 272.7 ± 1.7
255 K, Crystal | 273 ± 1.7
256.52 K, Crystal | 275 ± 1.7
259.52 K, Crystal | 277.5 ± 1.7
260 K, Crystal | 277.2 ± 1.7
262.52 K, Crystal | 280.1 ± 1.7
265 K, Crystal | 281.4 ± 1.7
265.5 K, Crystal | 282.4 ± 1.7
268.47 K, Crystal | 283.8 ± 1.7
270 K, Crystal | 285.7 ± 1.7
271.42 K, Crystal | 286.1 ± 1.8
274.37 K, Crystal | 289.5 ± 1.8
275 K, Crystal | 290.2 ± 1.8
277.31 K, Crystal | 290.7 ± 1.8
280 K, Crystal | 294.7 ± 1.8
280.26 K, Crystal | 293.6 ± 1.8
283.28 K, Crystal | 297.4 ± 1.8
285 K, Crystal | 299.3 ± 1.8
286.35 K, Crystal | 300.4 ± 1.8
289.39 K, Crystal | 302.9 ± 1.9
290 K, Crystal | 304.1 ± 1.9
292.4 K, Crystal | 306.6 ± 1.9
295 K, Crystal | 309 ± 1.9
295.4 K, Crystal | 308.5 ± 1.9
298.15 K, Crystal | 312.2 ± 1.9
298.4 K, Crystal | 312 ± 1.9
300 K, Crystal | 314.1 ± 1.9
301.4 K, Crystal | 314.7 ± 1.9
304.39 K, Crystal | 318.4 ± 1.9
305 K, Crystal | 319.3 ± 2
307.37 K, Crystal | 321.4 ± 2
310 K, Crystal | 324.7 ± 2
310.35 K, Crystal | 325.7 ± 2
313.32 K, Crystal | 329.7 ± 2
315 K, Crystal | 330.4 ± 2
316.34 K, Crystal | 332.9 ± 2
319.44 K, Crystal | 336.2 ± 2.1
320 K, Crystal | 336.2 ± 2.1
322.53 K, Crystal | 340.6 ± 2.1
325 K, Crystal | 342.2 ± 2.1
325.61 K, Crystal | 343 ± 2.1
328.68 K, Crystal | 346.8 ± 2.1
330 K, Crystal | 348.5 ± 2.1
331.74 K, Crystal | 350.7 ± 2.1
334.79 K, Crystal | 354.3 ± 2.2
335 K, Crystal | 355 ± 2.2
337.83 K, Crystal | 358 ± 2.2
340 K, Crystal | 361.7 ± 2.2
340.85 K, Crystal | 362.6 ± 2.2
343.87 K, Crystal | 367.1 ± 2.2
345 K, Crystal | 368.6 ± 2.2
372.62 K, Liquid | 463.3 ± 2.8
375 K, Liquid | 465 ± 2.8
375.92 K, Liquid | 465.4 ± 2.8
379.02 K, Liquid | 467.3 ± 2.8
380 K, Liquid | 467.7 ± 2.8
382.13 K, Liquid | 468.9 ± 2.9
385 K, Liquid | 470.4 ± 2.9
385.23 K, Liquid | 470.4 ± 2.9
388.37 K, Liquid | 472.1 ± 2.9
390 K, Liquid | 472.9 ± 2.9
391.51 K, Liquid | 473.6 ± 2.9
394.65 K, Liquid | 475.2 ± 2.9
395 K, Liquid | 475.3 ± 2.9
